Results as given in ChEMBL document CHEMBL4699525, “Design and synthesis of new indanol-1,2,3-triazole derivatives as potent antitubercular and antimicrobial agents” (Bioorg Med Chem Lett, 2020).
Values after ≈ are worked out from the molar mass of the structure shown. Active and inactive are the calls of the source. The rule behind the calls is not given here.

Columns and labels:
Klebsiella aerogenes = assay: Antibacterial activity against Enterobacter aerogenes assessed as inhibition of bacterial growth incubated for 24 hrs by agar well diffusion method; format: functional
Aspergillus niger = assay: Antifungal activity against Aspergillus niger assessed as inhibition of fungal growth incubated for 24 hrs by agar well diffusion method; format: functional
[1] = molecular target: T1, Enoyl-[acyl-carrier-protein] reductase [NADH] (Mycobacterium tuberculosis) (UniProt P9WGR1); assay: Inhibition of InhA in Mycobacterium tuberculosis H37Rv assessed antitubercular activity by measuring inhibition of bacterial growth incubated for 7 days by MABA assay; conditions: time 7.0 day
T1 sequence (whole entry): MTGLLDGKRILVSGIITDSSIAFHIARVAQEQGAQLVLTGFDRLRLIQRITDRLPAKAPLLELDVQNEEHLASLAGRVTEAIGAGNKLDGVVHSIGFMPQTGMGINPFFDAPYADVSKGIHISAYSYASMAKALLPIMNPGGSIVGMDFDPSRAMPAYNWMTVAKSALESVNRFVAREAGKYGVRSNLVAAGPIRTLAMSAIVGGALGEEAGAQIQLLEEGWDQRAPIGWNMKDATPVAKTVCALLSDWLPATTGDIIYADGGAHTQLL

Shigella boydii = assay: Antibacterial activity against Shigella boydii assessed as inhibition of bacterial growth incubated for 24 hrs by agar well diffusion method; format: functional
Staphylococcus aureus = assay: Antibacterial activity against Staphylococcus aureus assessed as inhibition of bacterial growth incubated for 24 hrs by agar well diffusion method; format: functional
Bacillus cereus = assay: Antibacterial activity against Bacillus cereus assessed as inhibition of bacterial growth incubated for 24 hrs by agar well diffusion method; format: functional
Pseudomonas aeruginosa = assay: Antibacterial activity against Pseudomonas aeruginosa assessed as inhibition of bacterial growth incubated for 24 hrs by agar well diffusion method; format: functional
Escherichia coli = assay: Antibacterial activity against Escherichia coli assessed as inhibition of bacterial growth incubated for 24 hrs by agar well diffusion method; format: functional
[2] = tested on: Salmonella enterica subsp. enterica serovar Abony; assay: Antibacterial activity against Salmonella abony assessed as inhibition of bacterial growth incubated for 24 hrs by agar well diffusion method; format: functional
Bacillus subtilis = assay: Antibacterial activity against Bacillus subtilis assessed as inhibition of bacterial growth incubated for 24 hrs by agar well diffusion method; format: functional
Saccharomyces cerevisiae = assay: Antifungal activity against Saccharomyces cerevisiae assessed as inhibition of fungal growth incubated for 24 hrs by agar well diffusion method; format: functional
Salmonella typhi = assay: Antibacterial activity against Salmonella typhi assessed as inhibition of bacterial growth incubated for 24 hrs by agar well diffusion method; format: functional; conditions: Salmonella enterica subsp. enterica serovar Typhi
Candida albicans = assay: Antifungal activity against Candida albicans assessed as inhibition of fungal growth incubated for 24 hrs by agar well diffusion method; format: functional
[3] = Cytotoxicity against human HEK293 cells assessed as inhibition of cell growth at 25 uM incubated for 48 hrs by MTT assay; format: cell-based

In the case of `Cc1ccc(NC(=O)Cn2cc(COc3ccc4c(c3)CCC4)nn2)cc1`, the “diameter of the inhibition zone (DIZ)” value (Klebsiella aerogenes) was “inactive”, the “diameter of the inhibition zone (DIZ)” value (Aspergillus niger) was “inactive” and the MIC [1] was greater than 25 µM. For the same compound, the “diameter of the inhibition zone (DIZ)” value (Shigella boydii) was “inactive”, the “diameter of the inhibition zone (DIZ)” value (Staphylococcus aureus) was 8 mm and the “diameter of the inhibition zone (DIZ)” value (Bacillus cereus) was “inactive”. For the same compound, the “diameter of the inhibition zone (DIZ)” value (Pseudomonas aeruginosa) was “inactive”, the “diameter of the inhibition zone (DIZ)” value (Escherichia coli) was “inactive” and the “diameter of the inhibition zone (DIZ)” value [2] was “inactive”. For the same compound, the “diameter of the inhibition zone (DIZ)” value (Bacillus subtilis) was “inactive”, the “diameter of the inhibition zone (DIZ)” value (Saccharomyces cerevisiae) was “inactive” and the “diameter of the inhibition zone (DIZ)” value (Salmonella typhi) was “inactive”. For the same compound, the “diameter of the inhibition zone (DIZ)” value (Candida albicans) was 12 mm.
In the case of `Brc1ccc(-n2cc(COc3ccc4c(c3)CCC4)nn2)cc1`, the “diameter of the inhibition zone (DIZ)” value (Klebsiella aerogenes) was “inactive”, the “diameter of the inhibition zone (DIZ)” value (Aspergillus niger) was “inactive” and the MIC [1] was greater than 25 µM. The “diameter of the inhibition zone (DIZ)” value (Shigella boydii) was “inactive”, the “diameter of the inhibition zone (DIZ)” value (Staphylococcus aureus) was “inactive” and the “diameter of the inhibition zone (DIZ)” value (Bacillus cereus) was “inactive”. For the same compound, the “diameter of the inhibition zone (DIZ)” value (Pseudomonas aeruginosa) was “inactive”, the “diameter of the inhibition zone (DIZ)” value (Escherichia coli) was 8 mm and the “diameter of the inhibition zone (DIZ)” value [2] was “inactive”. For the same compound, the “diameter of the inhibition zone (DIZ)” value (Bacillus subtilis) was “inactive”, the “diameter of the inhibition zone (DIZ)” value (Saccharomyces cerevisiae) was 7 mm and the “diameter of the inhibition zone (DIZ)” value (Salmonella typhi) was “inactive”. For the same compound, the “diameter of the inhibition zone (DIZ)” value (Candida albicans) was 11 mm.
In the case of `Clc1ccc(-n2cc(COc3ccc4c(c3)CCC4)nn2)cc1`, the “diameter of the inhibition zone (DIZ)” value (Klebsiella aerogenes) was “inactive”, the “diameter of the inhibition zone (DIZ)” value (Aspergillus niger) was “inactive” and the MIC [1] was greater than 25 µM. For the same compound, the “diameter of the inhibition zone (DIZ)” value (Shigella boydii) was “inactive”, the “diameter of the inhibition zone (DIZ)” value (Staphylococcus aureus) was 8 mm and the “diameter of the inhibition zone (DIZ)” value (Bacillus cereus) was “inactive”. The “diameter of the inhibition zone (DIZ)” value (Pseudomonas aeruginosa) was “inactive”, the “diameter of the inhibition zone (DIZ)” value (Escherichia coli) was “inactive” and the “diameter of the inhibition zone (DIZ)” value [2] was “inactive”. For the same compound, the “diameter of the inhibition zone (DIZ)” value (Bacillus subtilis) was “inactive”, the “diameter of the inhibition zone (DIZ)” value (Saccharomyces cerevisiae) was 8 mm and the “diameter of the inhibition zone (DIZ)” value (Salmonella typhi) was “inactive”. The “diameter of the inhibition zone (DIZ)” value (Candida albicans) was 10 mm.
With `Cc1ccc(NC(=O)Cn2cc(COc3ccc4c(c3)CCC4)nn2)c(C)c1` the “diameter of the inhibition zone (DIZ)” value (Klebsiella aerogenes) was “inactive”, the “diameter of the inhibition zone (DIZ)” value (Aspergillus niger) was “inactive” and the MIC [1] was greater than 25 µM. The “diameter of the inhibition zone (DIZ)” value (Shigella boydii) was 13 mm, the “diameter of the inhibition zone (DIZ)” value (Staphylococcus aureus) was “inactive” and the “diameter of the inhibition zone (DIZ)” value (Bacillus cereus) was “inactive”. For the same compound, the “diameter of the inhibition zone (DIZ)” value (Pseudomonas aeruginosa) was “inactive”, the “diameter of the inhibition zone (DIZ)” value (Escherichia coli) was “inactive” and the “diameter of the inhibition zone (DIZ)” value [2] was “inactive”. For the same compound, the “diameter of the inhibition zone (DIZ)” value (Bacillus subtilis) was “inactive”, the “diameter of the inhibition zone (DIZ)” value (Saccharomyces cerevisiae) was “inactive” and the “diameter of the inhibition zone (DIZ)” value (Salmonella typhi) was “inactive”. For the same compound, the “diameter of the inhibition zone (DIZ)” value (Candida albicans) was “inactive”.
In the case of `O=C(Cn1cc(COc2ccc3c(c2)CCC3)nn1)Nc1ccc(F)cc1`, the “diameter of the inhibition zone (DIZ)” value (Klebsiella aerogenes) was “inactive”, the “diameter of the inhibition zone (DIZ)” value (Aspergillus niger) was “inactive” and the MIC [1] was greater than 25 µM. For the same compound, the “diameter of the inhibition zone (DIZ)” value (Shigella boydii) was 11 mm, the “diameter of the inhibition zone (DIZ)” value (Staphylococcus aureus) was 13 mm and the “diameter of the inhibition zone (DIZ)” value (Bacillus cereus) was “inactive”. The “diameter of the inhibition zone (DIZ)” value (Pseudomonas aeruginosa) was “inactive”, the “diameter of the inhibition zone (DIZ)” value (Escherichia coli) was “inactive” and the “diameter of the inhibition zone (DIZ)” value [2] was “inactive”. The “diameter of the inhibition zone (DIZ)” value (Bacillus subtilis) was “inactive”, the “diameter of the inhibition zone (DIZ)” value (Saccharomyces cerevisiae) was “inactive” and the “diameter of the inhibition zone (DIZ)” value (Salmonella typhi) was “inactive”. For the same compound, the “diameter of the inhibition zone (DIZ)” value (Candida albicans) was 13 mm.
With `Cc1ccccc1NC(=O)Cn1cc(COc2ccc3c(c2)CCC3)nn1` the “diameter of the inhibition zone (DIZ)” value (Klebsiella aerogenes) was “inactive”, the “diameter of the inhibition zone (DIZ)” value (Aspergillus niger) was “inactive” and the MIC [1] was greater than 25 µM. For the same compound, the “diameter of the inhibition zone (DIZ)” value (Shigella boydii) was 11 mm, the “diameter of the inhibition zone (DIZ)” value (Staphylococcus aureus) was “inactive” and the “diameter of the inhibition zone (DIZ)” value (Bacillus cereus) was “inactive”. The “diameter of the inhibition zone (DIZ)” value (Pseudomonas aeruginosa) was “inactive”, the “diameter of the inhibition zone (DIZ)” value (Escherichia coli) was “inactive” and the “diameter of the inhibition zone (DIZ)” value [2] was “inactive”. The “diameter of the inhibition zone (DIZ)” value (Bacillus subtilis) was “inactive”, the “diameter of the inhibition zone (DIZ)” value (Saccharomyces cerevisiae) was “inactive” and the “diameter of the inhibition zone (DIZ)” value (Salmonella typhi) was “inactive”. For the same compound, the “diameter of the inhibition zone (DIZ)” value (Candida albicans) was “inactive”.
With `Cc1ccc(-n2cc(COc3ccc4c(c3)CCC4)nn2)cc1` the “diameter of the inhibition zone (DIZ)” value (Klebsiella aerogenes) was “inactive”, the “diameter of the inhibition zone (DIZ)” value (Aspergillus niger) was “inactive” and the MIC [1] was greater than 25 µM. For the same compound, the “diameter of the inhibition zone (DIZ)” value (Shigella boydii) was “inactive”, the “diameter of the inhibition zone (DIZ)” value (Staphylococcus aureus) was “inactive” and the “diameter of the inhibition zone (DIZ)” value (Bacillus cereus) was “inactive”. The “diameter of the inhibition zone (DIZ)” value (Pseudomonas aeruginosa) was “inactive”, the “diameter of the inhibition zone (DIZ)” value (Escherichia coli) was “inactive” and the “diameter of the inhibition zone (DIZ)” value [2] was “inactive”. For the same compound, the “diameter of the inhibition zone (DIZ)” value (Bacillus subtilis) was “inactive”, the “diameter of the inhibition zone (DIZ)” value (Saccharomyces cerevisiae) was “inactive” and the “diameter of the inhibition zone (DIZ)” value (Salmonella typhi) was “inactive”. For the same compound, the “diameter of the inhibition zone (DIZ)” value (Candida albicans) was 12 mm.
In the case of `Cc1ccc([N+](=O)[O-])cc1NC(=O)Cn1cc(COc2ccc3c(c2)CCC3)nn1`, the “diameter of the inhibition zone (DIZ)” value (Klebsiella aerogenes) was 12 mm, the “diameter of the inhibition zone (DIZ)” value (Aspergillus niger) was “inactive” and the MIC [1] was greater than 25 µM. The “diameter of the inhibition zone (DIZ)” value (Shigella boydii) was 9 mm, the “diameter of the inhibition zone (DIZ)” value (Staphylococcus aureus) was “inactive” and the “diameter of the inhibition zone (DIZ)” value (Bacillus cereus) was “inactive”. For the same compound, the “diameter of the inhibition zone (DIZ)” value (Pseudomonas aeruginosa) was 9 mm, the “diameter of the inhibition zone (DIZ)” value (Escherichia coli) was “inactive” and the “diameter of the inhibition zone (DIZ)” value [2] was “inactive”. The “diameter of the inhibition zone (DIZ)” value (Bacillus subtilis) was “inactive”, the “diameter of the inhibition zone (DIZ)” value (Saccharomyces cerevisiae) was “inactive” and the “diameter of the inhibition zone (DIZ)” value (Salmonella typhi) was “inactive”. The “diameter of the inhibition zone (DIZ)” value (Candida albicans) was “inactive”.
With `COc1cccc(-n2cc(COc3ccc4c(c3)CCC4)nn2)c1` the inhibition at 48 h, 25 µM [3] was 25.8%, the “diameter of the inhibition zone (DIZ)” value (Klebsiella aerogenes) was “inactive” and the MIC [1] was 12.5 µM (≈ 4.02 µg/mL). For the same compound, the “diameter of the inhibition zone (DIZ)” value (Shigella boydii) was 13 mm, the “diameter of the inhibition zone (DIZ)” value (Staphylococcus aureus) was 12 mm and the “diameter of the inhibition zone (DIZ)” value (Bacillus cereus) was “inactive”. The “diameter of the inhibition zone (DIZ)” value (Pseudomonas aeruginosa) was 9 mm, the “diameter of the inhibition zone (DIZ)” value (Escherichia coli) was 10 mm and the “diameter of the inhibition zone (DIZ)” value [2] was 11 mm. The “diameter of the inhibition zone (DIZ)” value (Bacillus subtilis) was “inactive”, the “diameter of the inhibition zone (DIZ)” value (Saccharomyces cerevisiae) was “inactive” and the “diameter of the inhibition zone (DIZ)” value (Candida albicans) was 12 mm.
For `COc1cccc(NC(=O)Cn2cc(COc3ccc4c(c3)CCC4)nn2)c1`, the “diameter of the inhibition zone (DIZ)” value (Klebsiella aerogenes) was “inactive”, the “diameter of the inhibition zone (DIZ)” value (Aspergillus niger) was “inactive” and the MIC [1] was greater than 25 µM. For the same compound, the “diameter of the inhibition zone (DIZ)” value (Shigella boydii) was 15 mm, the “diameter of the inhibition zone (DIZ)” value (Staphylococcus aureus) was “inactive” and the “diameter of the inhibition zone (DIZ)” value (Bacillus cereus) was “inactive”. For the same compound, the “diameter of the inhibition zone (DIZ)” value (Pseudomonas aeruginosa) was “inactive”, the “diameter of the inhibition zone (DIZ)” value (Escherichia coli) was “inactive” and the “diameter of the inhibition zone (DIZ)” value [2] was “inactive”. For the same compound, the “diameter of the inhibition zone (DIZ)” value (Bacillus subtilis) was “inactive”, the “diameter of the inhibition zone (DIZ)” value (Saccharomyces cerevisiae) was “inactive” and the “diameter of the inhibition zone (DIZ)” value (Salmonella typhi) was “inactive”. For the same compound, the “diameter of the inhibition zone (DIZ)” value (Candida albicans) was “inactive”.
In the case of `O=C(Cn1cc(COc2ccc3c(c2)CCC3)nn1)Nc1ccc(Cl)cc1`, the “diameter of the inhibition zone (DIZ)” value (Klebsiella aerogenes) was “inactive”, the “diameter of the inhibition zone (DIZ)” value (Aspergillus niger) was “inactive” and the MIC [1] was greater than 25 µM. The “diameter of the inhibition zone (DIZ)” value (Shigella boydii) was “inactive”, the “diameter of the inhibition zone (DIZ)” value (Staphylococcus aureus) was 8 mm and the “diameter of the inhibition zone (DIZ)” value (Bacillus cereus) was “inactive”. The “diameter of the inhibition zone (DIZ)” value (Pseudomonas aeruginosa) was “inactive”, the “diameter of the inhibition zone (DIZ)” value (Escherichia coli) was “inactive” and the “diameter of the inhibition zone (DIZ)” value [2] was “inactive”. For the same compound, the “diameter of the inhibition zone (DIZ)” value (Bacillus subtilis) was “inactive”, the “diameter of the inhibition zone (DIZ)” value (Saccharomyces cerevisiae) was 10 mm and the “diameter of the inhibition zone (DIZ)” value (Salmonella typhi) was “inactive”. For the same compound, the “diameter of the inhibition zone (DIZ)” value (Candida albicans) was 15 mm.
